From paper PMC12249711, “Comprehensive Evaluation of 1H-Isoindole-1,3(2H)-Dione Derivatives: Pharmacokinetic Studies and Analgesic Potential in Various Pain Models” (International Journal of Molecular Sciences, 2025)
Read-outs that look alike come from different tables or passages of the source.

What was measured:
[1] = Pharmacokinetic study after single i.p. administration, serum and brain concentrations by LC-MS/MS, non-compartmental analysis; assay type: in vivo, Albino Swiss mice; details: mice; for Kp: brain/serum, read-out: Kbrain/serum (brain/serum partitioning coefficient); for Kp / MRT / Tmax / half-life / k el / CL/F / Vd/F / AUC0-inf / AUC0–8h: 5 mg/kg i.p.; for half-life: read-out: t1/2(λz) half-life in the elimination phase (converted); for k el: read-out: λz (terminal elimination rate constant) (converted); for Vd/F: read-out: Vz/F
Procedure: The compounds F1, F2, F3, and F4 were suspended in a 1% Tween 80 solution in sterile water for injection and given to mice i.p. at a dose of 5 mg/kg (n = 3 per time point; all mice in procedure = 96) as a single injection at a volume of 10 mL/kg. At specific time points (5; 15; 30; 60; 120; 240; 360; and 480 min after compound administration), mice were sacrificed by decapitation under isoflurane (5%) anesthesia to harvest blood and brain for assays. After allowing the blood to coagulate for 20 min at room temperature, blood samples were centrifuged for 10 min at 8000 rpm (Eppendorf miniSpin centrifuge) to obtain serum. Moreover, brains were removed (at the same time point) from skulls and washed with 0.9% NaCl. The obtained serum and brains were stored at −80 °C until analysis.
Concentrations of compounds F1 to F4 in mice brains and serum were measured by the liquid chromatography tandem mass spectrometry (LC-MS/MS) method using a Sciex QTRAP 4500 triple quadrupole mass spectrometer coupled to an Excion LC AC HPLC system (both from Danaher Corporation, Washington, DC, USA). The brains were homogenized in distilled water at the ratio of 1:4 (w/v) with a tissue homogenizer ULTRA-TURRAX T10 basic (IKA, Königswinter, Germany). The stock solutions of analyzed compounds were prepared in methanol at the concentration of 1 mg/mL. For the preparation of calibration curves, working standard solutions were prepared in methanol by the serial dilution of the stock solution at the following concentrations: 0.005; 0.01; 0.1; 0.25; 0.5; 1; 2.5; 5; and 10 µg/mL. To prepare samples for the calibration curve, 45 μL of matrix (blank plasma or brain homogenate) was spiked with 5 μL of standard working solution at an appropriate concentration level and vortexed for 10 s. Brain homogenates or serum samples (50 µL) as well as calibration samples were deproteinized with 150 μL of 0.1% formic acid in acetonitrile with an addition of internal standard (valsartan), shaken for 10 min (IKA Vibrax VXR, Königswinter, Germany), and centrifuged for 5 min at a speed of 8000× g (Eppendorf miniSpin centrifuge, Hamburg, Germany). Then, brain or serum supernatants were transferred into the autosampler vials. The autosampler temperature was maintained at 15 °C and a sample volume of 1 μL was injected into the LC-MS/MS system.
Chromatographic separation was carried out on the Hypersil GoldTM C18 analytical column (2.1 × 50 mm, 3 µm, Thermo Scientific, Waltham, MA, USA) with the oven temperature set at 30 °C. The mobile phase containing 0.1% formic acid in acetonitrile and 0.1% formic acid in water was delivered at a flow rate of […] in the gradient mode. Electrospray ionization (ESI) in the positive ion mode was used for ion production. The tandem mass spectrometer was operated at unit resolution in the selected reaction monitoring mode (SRM), monitoring the transitions of the protonated molecular ions m/z 366 to 201 (CE = 40 eV) and m/z 366 to 160 (CE = 40 eV) for compound F1, m/z 396 to 190 (CE = 39 eV) and m/z 396 to 160 (CE = 49 eV) for compound F2, m/z 434 to 145 (CE = 95 eV) and m/z 434 to 160 (CE = 47 eV) for compound F3, and m/z 456 to 167 (CE = 27 eV) and m/z 456 to 152 (CE = 85 eV) for compound F4. The first pair was used as a quantifier and the second for the identity verification—qualifier. One pair (m/z 436 to 235; CE = 42 eV) was monitored for valsartan used as an internal standard. The mass spectrometric conditions were optimized by continuous infusion of the standard solutions at the rate of 7 μL/min using a Harvard infusion pump (Harvard Apparatus, Holliston, MA, USA). The ion source temperature was maintained at 450 °C and the ion spray voltage was set at 4500 V. The curtain gas (CUR) was set at 40 and the collision gas (CAD) at Medium. The calibration curves were constructed by plotting the ratio of the peak area of the studied compound to internal standard (IS) versus drug concentration and generated by weighted (1/x·x) linear regression analysis. […]

mice = assay: Capsaicin-induced neurogenic pain test; assay type: in vivo, Albino Swiss mice; details: vs vehicle
Procedure: The examined compounds were administered 30 min before the test (n = 112). The pain reaction was induced by injecting 20 μL of a capsaicin solution prepared in saline (1.6 μg capsaicin per mouse paw) into the dorsal surface of the right hind paw for further details. The animals were immediately placed individually into glass beakers and the amount of time spent licking the injected paw was recorded for 5 min with a chronometer.

rats = assay: Carrageenan-induced paw edema (plethysmometer); assay type: in vivo, Wistar rats; details: for Change in Edema Volume: mean ± SEM, rats; for Reduction in edema volume: vs control
Procedure: The acute and local inflammation and paw edema was induced by intraplantar (i.pl.) injection of 0.1 mL of 1% carrageenan solution in PBS into the rat’s right hind paw, according to the modified method of Winter and Lence, as described previously; (n = 84). […] Vehicle (1% Tween 80) was administered by the same route as the tested compounds.

[2] = parameters: method as in PMID 35396875; details: within the tested dose range; cited from earlier work
[3] = Albino Swiss, mouse, ip, serum, 5 min after 5 mg/kg i.p., read-out: Cmax (maximal concentration)
[4] = brain, 5 mg/kg i.p. single dose
[5] = serum, 5 mg/kg i.p. single dose
[6] = 10 mg/kg i.p., 1 h after carrageenan
[7] = 10 mg/kg i.p., 2 h after carrageenan
[8] = 10 mg/kg i.p., 3 h after carrageenan
[9] = 20 mg/kg i.p., 1 h after carrageenan
[10] = 20 mg/kg i.p., 2 h after carrageenan
[11] = 20 mg/kg i.p., 3 h after carrageenan

SMILES | Kp ([1]; Albino Swiss, mouse, ip) | MRT ([1]; Albino Swiss, mouse, ip, brain) [min] | Tmax ([1]; Albino Swiss, mouse, ip, brain) [min] | half-life ([1]; Albino Swiss, mouse, ip, brain) [min] | k el ([1]; Albino Swiss, mouse, ip, brain) [s⁻¹] | Cmax [1, 3] [ng/mL] | CL/F ([1]; Albino Swiss, mouse, ip, serum) [mL/min/kg] | MRT ([1]; Albino Swiss, mouse, ip, serum) [min] | Tmax ([1]; Albino Swiss, mouse, ip, serum) [min] | Vd/F ([1]; Albino Swiss, mouse, ip, serum) [L/kg] | half-life ([1]; Albino Swiss, mouse, ip, serum) [min] | k el ([1]; Albino Swiss, mouse, ip, serum) [s⁻¹] | AUC0-inf ([1]; brain) | AUC0–8h ([1]; brain) | Cmax [1, 4] | AUC0-inf ([1]; serum) | AUC0–8h ([1]; serum) | Cmax [1, 5] | Reduction of capsaicin-induced neurogenic pain (mice; 5 mg/kg i.p.) [%] | Reduction of capsaicin-induced neurogenic pain (mice; 10 mg/kg i.p.) [%] | other results
COc1ccccc1N1CCN(CC(O)CN2C(=O)c3ccccc3C2=O)CC1 (stereo not shown) [Compound F2] | 0.79 | 84.6 | 4.98 | 54 | 0.000214 | 700 | 279 | 68.4 | 4.98 | 18.2 | 45 | 0.000256 | 237.16 µg∙h/L(kg) | 230.83 µg∙h/L(kg) | 465.38 µg/L(kg) | 298.26 µg∙h/L(kg) | 292.78 µg∙h/L(kg) | 699.75 µg/L(kg) | 31 | 56 | Reduction of capsaicin-induced neurogenic pain (mice; 20 mg/kg i.p.): 74.7%; Change in Edema Volume (rats; [6]): 1.51 ± 0.04 ns mL; Change in Edema Volume (rats; [7]): 1.82 ± 0.03 mL; Change in Edema Volume (rats; [8]): 1.99 ± 0.02 ns mL; Reduction in edema volume (rats; 10 mg/kg, 2 h): approximately 9%; Change in Edema Volume (rats; [9]): 1.15 ± 0.08 mL; Change in Edema Volume (rats; [10]): 1.63 ± 0.04 mL; Change in Edema Volume (rats; [11]): 1.91± 0.03 ns mL; Reduction in edema volume (rats; 20 mg/kg, 1 h): 26.8%; Reduction in edema volume (rats; 20 mg/kg, 2 h): 17.7%; Effect on locomotor activity / sedation [2]: dose-dependent suppression of spontaneous locomotor activity
O=C1c2ccccc2C(=O)N1CC(O)CN1CCN(c2ccccc2)CC1 (stereo not shown) [Compound F1] | 1.77 | 81.6 | 4.98 | 54.6 | 0.000211 | 596 | 395 | 79.2 | 4.98 | 32.6 | 57 | 0.000203 | 374.60 µg∙h/L(kg) | 368.04 µg∙h/L(kg) | 970 µg/L(kg) | 211.22 µg∙h/L(kg) | 205.95 µg∙h/L(kg) | 595.75 µg/L(kg) | 31.7 | 40.8 | Reduction of capsaicin-induced neurogenic pain (mice; 20 mg/kg i.p.): 69.0%; Change in Edema Volume (rats; [6]): 1.14 ± 0.05 mL; Change in Edema Volume (rats; [7]): 1.51 ± 0.09 mL; Change in Edema Volume (rats; [8]): 1.67 ± 0.09 mL; Reduction in edema volume (rats; 10 mg/kg, 1 h): 27.8%; Reduction in edema volume (rats; 10 mg/kg, 2 h): 17.5%; Reduction in edema volume (rats; 10 mg/kg, 3 h): 17%; Change in Edema Volume (rats; [9]): 1.09 ± 0.02 mL; Change in Edema Volume (rats; [10]): 1.15 ± 0.07 mL; Change in Edema Volume (rats; [11]): 1.55 ± 0.09 mL; Reduction in edema volume (rats; 20 mg/kg, 2 h): 37.2%; Reduction in edema volume (rats; 20 mg/kg, 3 h): 22.1%; Effect on locomotor activity / sedation [2]: mild sedative effects
